Target: T1, human Nav1.1 (Homo sapiens, UniProt P35498)
T1 construct: host or cells: HEK293
Assay: Amplification of Nav1.1-derived voltage-dependent sodium current (Nav1.1 current), cell line stably expressing human Nav1.1, automated patch clamp
Assay type: cell-based
Settings: 10 μmol/L compound (Test Result 5)
Description: Test 1: Evaluation of the Amplification of Nav1.1-Derived Voltage-Dependent Sodium Current (Nav1.1 Current) by Using a Cell Line Stably Expressing Human Nav1.1
(1) Preparation of Test Compounds
Test compounds were prepared by dissolving in DMSO at 200 times of the concentration at evaluation, and diluting the obtained solution to twice the concentration of evaluation with an extracellular fluid (135 mmol/L NaCl, 4 mmol/L KCl, 1 mmol/L MgCl2, 5 mmol/L CaCl2, 5 mmol/L Glucose, 10 mmol/L HEPES).
(2) Induction and Measurement of Nav1.1 Current
A HEK293 cell line stably expressing human Nav1.1 (cat #CYL3009, Millipore, USA, Human Embryonic Kidney 293) was purchased, and used in the present test. Nav1.1 current was induced by stimulating Ramp wave voltage. Detection of current which accompanied with the stimulation of voltage was carried out by a patch-clamp voltage-clamp method using HTS automated patch clamp system (SynchroPatch 768PE, Nanion Technologies GmbH, Germany). Only cells with more than 500 pA of voltage-dependent sodium channel current were used for the evaluation of the activity of compounds on Nav1.1 current because there was the possibility that currents derived from endogenous voltage-dependent sodium channels accounted for large proportion in cells with less than 500 pA of voltage-dependent sodium channel current which was induced by stimulating Ramp wave voltage.
(3) Pharmacologic Effect on Nav1.1 Current
The effect of test compounds on the amplification of Nav1.1-derived voltage-dependent sodium current was evaluated by using a cell line stably expressing human Nav1.1 and HTS automated patch clamp system. In other words, test compounds were added in an extracellular fluid containing 1% DMSO, and evaluated as a change of the peak value of Nav1.1 current and the area under the curve (AUC).
(4) Method for Pharmacological Evaluation
The Nav1.1 current amplification rates of test compounds were calculated by the following formula:
Nav1.1 current amplification rate (%)=100×[the peak value of Nav1.1 current or the area under the curve after the addition of test compounds]/[the peak value of Nav1.1 current or the area under the curve before the addition of test compounds]−100

Compared with `CC1CC=C(c2ccc(=O)n(CC(=O)N3CCC(c4cccnc4)CC3)n2)CC1` (racemic) [Example 262], `CC1CC=C(c2ccc(=O)n(CC(=O)N3CCc4c3ccnc4C3=CCNC3)n2)CC1` (racemic) [Example 281] is lower in “Nav1.1 current amplification rate (%)” value: 124% for the first, 40% for the second.

For `CC1CC=C(c2ccc(=O)n(CC(=O)N3CCc4c(C5CN(C(C)C)C5)cccc43)n2)CC1` (racemic) [Example 304], the “Nav1.1 current amplification rate (%)” value was 167%.

Same assay, conditions: compound 50 μmol/L; HEK293 stably expressing human Nav1.1

First: CC1CC=C(c2ccc(=O)n(CC(=O)NC3CCN(c4ccccc4)C3)n2)CC1 (mixture of isomers) [Example 369]
Second: CC1CC=C(c2ccc(=O)n(CC(=O)Nc3ccc4nncn4c3)n2)CC1 (racemic) [Example 341]
The “Nav1.1 current amplification rate (%)” value of the first is lower: 10% for the first, 202% for the second.

Compared with `CC1CC=C(c2ccc(=O)n(CC(=O)N3CCc4nc(-c5cn[nH]c5)ccc43)n2)CC1` (racemic) [Example 289], `CC1CC=C(c2ccc(=O)n(CC(=O)N3CCc4c(-c5cc[nH]n5)ccnc43)n2)CC1` (racemic) [Example 291] is higher in “Nav1.1 current amplification rate (%)” value: 51% for the first, 212% for the second.

Compared with `CC1CC=C(c2ccc(=O)n(CC(=O)N3CCc4c(C=C5CCNCC5)cccc43)n2)CC1` (racemic) [Example 293], `CC1CC=C(c2ccc(=O)n(CC(=O)Nc3ccc4ncccc4c3)n2)CC1` (racemic) [Example 357] is lower in “Nav1.1 current amplification rate (%)” value: 55% for the first, 43% for the second.

Compared with `COCCCN1CC2(CCN(C(=O)Cn3nc(C4=CCC(C)CC4)ccc3=O)C2)C1` (racemic) [Example 308], `Cc1cc2nc(NC(=O)Cn3nc(C4=CCC(C)CC4)ccc3=O)ccn2n1` (racemic) [Example 340] is higher in “Nav1.1 current amplification rate (%)” value: 9% for the first, 41% for the second.

First: Cc1cc2ncnn2cc1NC(=O)Cn1nc(C2=CCC(C)CC2)ccc1=O (racemic) [Example 351]
Second: Cc1c(NC(=O)Cn2nc(C3=CCC(C)CC3)ccc2=O)ccc2ncnn12 (racemic) [Example 353]
The “Nav1.1 current amplification rate (%)” value of the first is higher: 98% for the first, 32% for the second.

Same assay, conditions: concentration of each compound 1 μmol/L (Test Result 6)

Going from `COC1CCN(Cc2cccc3c2CCN3C(=O)Cn2nc(C3=CCC(C)CC3)ccc2=O)C1` (mixture of isomers) [Example 272] to `COC1CN(Cc2cccc3c2CCN3C(=O)Cn2nc(C3=CCC(C)CC3)ccc2=O)C1` (racemic) [Example 274], the “Nav1.1 current amplification rate (%)” value falls from 127% to 60%.

Compared with `COC1CCN(Cc2cccc3c2CCN3C(=O)Cn2nc(C3=CCC(C)CC3)ccc2=O)C1` (mixture of isomers) [Example 273], `CC1CC=C(c2ccc(=O)n(CC(=O)N3CCc4c(CN5CCCCC5)cccc43)n2)CC1` (racemic) [Example 282] is lower in “Nav1.1 current amplification rate (%)” value: 77% for the first, 26% for the second.

Compared with `COCCN(C)Cc1cccc2c1CCN2C(=O)Cn1nc(C2=CCC(C)CC2)ccc1=O` (racemic) [Example 275], `COCCNCc1cccc2c1CCN2C(=O)Cn1nc(C2=CCC(C)CC2)ccc1=O` (racemic) [Example 314] is lower in “Nav1.1 current amplification rate (%)” value: 46% for the first, 9% for the second.

First: CC1CC=C(c2ccc(=O)n(CC(=O)N3CCc4c3ccnc4C3=CCN(C(=O)OC(C)(C)C)C3)n2)CC1 (racemic) [Example 280]
Second: CC(=O)N1CC=C(c2nccc3c2CCN3C(=O)Cn2nc(C3=CCC(C)CC3)ccc2=O)C1 (racemic) [Example 310]
The “Nav1.1 current amplification rate (%)” value of the first is lower: 10% for the first, 87% for the second.

First: CC1CC=C(c2ccc(=O)n(CC(=O)N3CCc4c3ccnc4C3=CCN(C)C3)n2)CC1 (racemic) [Example 283]
Second: CC1CC=C(c2ccc(=O)n(CC(=O)N3CCc4c3ccnc4C3=CCOC3)n2)CC1 (racemic) [Example 284]
The “Nav1.1 current amplification rate (%)” value of the first is lower: 15% for the first, 91% for the second.

Compared with `CC1CC=C(c2ccc(=O)n(CC(=O)N3CCc4c3ccnc4-c3cn[nH]c3)n2)CC1` (racemic) [Example 285], `CC1CC=C(c2ccc(=O)n(CC(=O)N3CCc4c3ccnc4-c3cccnc3)n2)CC1` (racemic) [Example 297] is higher in “Nav1.1 current amplification rate (%)” value: 113% for the first, 151% for the second.

First: Cc1cn(Cc2cccc3c2CCN3C(=O)Cn2nc(C3=CCC(C)CC3)ccc2=O)cn1 (racemic) [Example 288]
Second: CC1CC=C(c2ccc(=O)n(CC(=O)N3CCc4c(CNC5CCC5)cccc43)n2)CC1 (racemic) [Example 315]
The “Nav1.1 current amplification rate (%)” value of the first is higher: 115% for the first, 19% for the second.

Compared with `CC1CC=C(c2ccc(=O)n(CC(=O)N3CCc4c(-c5cc[nH]n5)ccc(F)c43)n2)CC1` (racemic) [Example 292], `CC1CC=C(c2ccc(=O)n(CC(=O)N3CCc4c3ccc(F)c4-c3ccnnc3)n2)CC1` (racemic) [Example 295] is higher in “Nav1.1 current amplification rate (%)” value: 46% for the first, 95% for the second.

Going from `CC1CC=C(c2ccc(=O)n(CC(=O)N3CCc4c3ccnc4C3=CCOCC3)n2)CC1` (racemic) [Example 296] to `COC1CCN(c2nccc3c2CCN3C(=O)Cn2nc(C3=CCC(C)CC3)ccc2=O)CC1` (racemic) [Example 309], the “Nav1.1 current amplification rate (%)” value falls from 87% to 71%.

Going from `CC1CC=C(c2ccc(=O)n(CC(=O)N3CCc4cc(-c5cccnc5)ccc43)n2)CC1` (racemic) [Example 298] to `CC1CC=C(c2ccc(=O)n(CC(=O)N3CCc4cc(OCC(C)(C)O)ccc43)n2)CC1` (racemic) [Example 320], the “Nav1.1 current amplification rate (%)” value falls from 51% to 10%.

First: CC1CC=C(c2ccc(=O)n(CC(=O)N3CCc4c(CNCC(F)F)cccc43)n2)CC1 (racemic) [Example 312]
Second: CC1CC=C(c2ccc(=O)n(CC(=O)N3CCc4c(CNC5CCOCC5)cccc43)n2)CC1 (racemic) [Example 317]
The “Nav1.1 current amplification rate (%)” value of the first is higher: 80% for the first, 41% for the second.

Compared with `CC1CC=C(c2ccc(=O)n(CC(=O)Nc3ccc4c(cnn4C)c3)n2)CC1` (racemic) [Example 336], `CC1CC=C(c2ccc(=O)n(CC(=O)Nc3cnc4c(cnn4C)c3)n2)CC1` (racemic) [Example 348] is lower in “Nav1.1 current amplification rate (%)” value: 68% for the first, 57% for the second.

First: CC1CC=C(c2ccc(=O)n(CC(=O)Nc3cnc4nccn4c3)n2)CC1 (racemic) [Example 337]
Second: CC1CC=C(c2ccc(=O)n(CC(=O)Nc3ccc4nccn4c3)n2)CC1 (racemic) [Example 343]
The “Nav1.1 current amplification rate (%)” value of the first is higher: 52% for the first, 44% for the second.

Going from `CC1CC=C(c2ccc(=O)n(CC(=O)Nc3ccc4cncn4c3)n2)CC1` (racemic) [Example 344] to `Cc1cc2ccc(NC(=O)Cn3nc(C4=CCC(C)CC4)ccc3=O)cn2n1` (racemic) [Example 347], the “Nav1.1 current amplification rate (%)” value falls from 69% to 37%.

First: CC1CC=C(c2ccc(=O)n(CC(=O)Nc3ccc4ncnn4n3)n2)CC1 (racemic) [Example 350]
Second: CC1CC=C(c2ccc(=O)n(CC(=O)Nc3ccn4cnnc4c3)n2)CC1 (racemic) [Example 358]
The “Nav1.1 current amplification rate (%)” value of the first is lower: 31% for the first, 71% for the second.

— US20220347175A1, “PYRIDAZINONE DERIVATIVE” (Sumitomo Dainippon Pharma Co., Ltd., priority 2018, published 2022)
